Test results taken from patent US20120065221A1, “Extended Release Oral Pharmaceutical Compositions of 3-Hydroxy-N-Methylmorphinan and Method of Use” (priority 2009, published 2012).
Structures can show the parent of a compound that is named as a salt. Where two headings read alike, the source gives them in different places.

Columns and labels:
[1] = target: T1, 5-HT uptake (Rattus norvegicus, UniProt P31652); experiment: 5-HT uptake assay; format: biochemical; settings: rat brain synaptosomes
T1 construct: [^3H]5-HT incorporation into rat brain synaptosomes; from tissue; host or cells: rat brain synaptosomes
Procedure: (§1) This analysis was performed using validated proprietary software.

[2] = target: T2, norepinephrine uptake (Rattus norvegicus, UniProt Q63380); experiment: norepinephrine uptake assay; format: biochemical; settings: rat hypothalamus synaptosomes
T2 construct: [^3H]NE incorporation into rat hypothalamus synaptomsomes; from tissue; host or cells: rat hypothalamus synaptosomes
Procedure: as §1

[3] = target: NMDA (Rattus norvegicus, UniProt P35439)
Description: The specific ligand binding to the receptors was defined as the difference between the total binding and the nonspecific binding determined in the presence of an excess of unlabelled ligand. The results were expressed as a percent of control specific binding ((measured specific binding/control specific binding)×100) and as a percent inhibition of control specific binding (100-((measured specific binding/control specific binding)×100)) obtained in the presence of the test compounds. The IC50 values (concentration causing a half-maximal inhibition of control specific binding) and Hill coefficients (nH) were determined by non-linear regression analysis of the competition curves generated with mean replicate values using Hill equation curve fitting (Y=D+[(A−D)/(1+(C/C50)^nH)], where Y=specific binding, D=minimum specific binding, A=maximum specific binding, C=compound concentration, C50=IC50, and nH=slope factor). This analysis was performed using validated proprietary software. The inhibition constants (Ki) were calculated using the Cheng Prusoff equation Ki=IC50/(1+(L/KD)), where L=concentration of radioligand in the assay, and KD=affinity of the radioligand for the receptor). A scatchard plot was used to determine the Kd.

[4] = system: serotonin reuptake and norepinephrine reuptake in rat brain synaptosomes; experiment: norepinephrine and serotonin reuptake inhibition in rat brain synaptosomes; format: biochemical
[5] = system: thermal nociception (hot-plate test); experiment: 53° C. hot-plate test of thermal nociception; format: in vivo, rat; settings: compared with morphine
Procedure: Methods: Male Sprague-Dawley rats (200-300 grams) were used. Antinociceptive activity was determined by the 53° C. hot-plate test. The rat is placed on a metal plate heated to 53° C., and the latency to withdrawing or shaking or licking of a paw, or escape attempts by jumping were documented. A cut-off latency of 15 sec was employed. Drugs were prepared administered after baseline measurements were performed. Behavioral testing was performed 30, 45 and 60 minutes after dosing. The levorphanol data for were compared to historical morphine data. […] Dose-response curves along with A50 values (i.e., dose calculated to produce a 50% MPE) and confidence intervals were determined from linear regression analysis of the log dose-effect curves. Significant differences in potency between 2 dose-response curves were determined by applying the Student's t-statistic to variances of the A50 values obtained for each dose-response curve. The antinociceptive effect of levorphanol was determined in the 53° C. rat hot-plate test 30, 45 and 60 minutes after dosing. Hot-plate latencies for each time-point were compared to the mean baseline response by ANOVA followed by the post-hoc Fisher's Least Significant Difference test.

[6] = system: thermal nociception (tail flick test); experiment: Tail flick test of thermal nociception; format: in vivo, rat; settings: compared with morphine
Procedure: Objective: To evaluate the efficacy and potency of levorphanol and to compare its potency relative to that of morphine in a model of thermal nociception (tail flick test).
Methods: Male Sprague-Dawley rats (200-300 grams) were used. Antinociceptive activity was determined by a significant increase in the latency to a reflexive flicking of the tail away from a radiant heat (infrared) source projected onto a small area on the ventral aspect of the tail. Baseline tail flick latencies were determined prior to any drug administration. The antinociceptive effect of levorphanol was determined 30, 45 and 60 minutes after dosing. […] Tail flick latencies for each time-point were compared to the mean baseline response by ANOVA followed by the post-hoc Fisher's Least Significant Difference test. A significant increase from the baseline was considered antinociceptive. […] Dose-response curves along with A50 values (i.e., dose calculated to produce a 50% MPE) and confidence intervals were determined from linear regression analysis of the log dose-effect curves. Significant differences in potency between 2 dose-response curves were determined by applying the Student's t-statistic to variances of the A50 values obtained for each dose-response curve.

[7] = American Pain Society 2008, cited from earlier work
[8] = cited from earlier work; for plasma half life: American Pain Society 2008; for half-life of oral levorphanol: Dixon et al 1983
[9] = published pharmacokinetics of oral levorphanol (prescribing information, American Pain Society, Dixon et al)
[10] = IC50, expressed as levorphanol base
[11] = IC50, expressed as levorphanol tartrate

T2 sequence (Q63380 1-617): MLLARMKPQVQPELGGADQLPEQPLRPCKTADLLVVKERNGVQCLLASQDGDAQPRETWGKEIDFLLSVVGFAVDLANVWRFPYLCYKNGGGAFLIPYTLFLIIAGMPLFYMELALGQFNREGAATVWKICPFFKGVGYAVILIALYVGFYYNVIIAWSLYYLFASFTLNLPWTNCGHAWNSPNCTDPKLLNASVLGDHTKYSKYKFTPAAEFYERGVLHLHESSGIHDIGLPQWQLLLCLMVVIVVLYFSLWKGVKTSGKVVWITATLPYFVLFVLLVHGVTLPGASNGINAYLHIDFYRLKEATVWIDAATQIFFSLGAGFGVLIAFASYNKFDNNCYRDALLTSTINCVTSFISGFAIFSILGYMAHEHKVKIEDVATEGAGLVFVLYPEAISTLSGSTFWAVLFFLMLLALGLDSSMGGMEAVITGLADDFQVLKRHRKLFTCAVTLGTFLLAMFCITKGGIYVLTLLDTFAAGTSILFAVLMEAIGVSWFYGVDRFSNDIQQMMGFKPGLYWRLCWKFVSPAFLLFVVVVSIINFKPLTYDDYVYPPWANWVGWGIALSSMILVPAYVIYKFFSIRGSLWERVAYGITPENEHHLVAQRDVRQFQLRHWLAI
T1 sequence (P31652 whole entry): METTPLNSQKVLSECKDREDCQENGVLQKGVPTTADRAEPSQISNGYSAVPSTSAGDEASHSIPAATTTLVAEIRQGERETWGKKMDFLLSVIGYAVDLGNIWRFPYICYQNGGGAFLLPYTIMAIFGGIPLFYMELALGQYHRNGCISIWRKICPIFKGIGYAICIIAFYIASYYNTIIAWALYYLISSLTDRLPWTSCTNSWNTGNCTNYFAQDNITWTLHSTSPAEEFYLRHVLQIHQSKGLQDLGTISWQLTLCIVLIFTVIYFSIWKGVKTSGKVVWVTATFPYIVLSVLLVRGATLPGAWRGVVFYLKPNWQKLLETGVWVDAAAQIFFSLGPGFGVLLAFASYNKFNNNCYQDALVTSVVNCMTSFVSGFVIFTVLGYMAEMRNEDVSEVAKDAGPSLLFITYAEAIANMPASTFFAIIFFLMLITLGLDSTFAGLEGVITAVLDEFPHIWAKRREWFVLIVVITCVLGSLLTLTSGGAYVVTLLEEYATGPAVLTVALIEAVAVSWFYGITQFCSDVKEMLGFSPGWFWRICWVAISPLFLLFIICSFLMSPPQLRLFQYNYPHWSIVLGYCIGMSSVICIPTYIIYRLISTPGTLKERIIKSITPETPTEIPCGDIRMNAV

| Structure (SMILES) | IC50 [1, 10] [nM] | IC50 [1, 11] [nM] | IC50 [2, 10] [nM] | IC50 [2, 11] [nM] | inhibition [3] [%] | selectivity for serotonin reuptake inhibition over norepinephrine reuptake inhibition [4] | duration of analgesic action [5] | duration of analgesic action [6] | dose equianalgesic to oral morphine sulfate 30 mg ([7]; acute pain) [mg] | dose equianalgesic to oral morphine sulfate 30 mg ([7]; chronic pain) [mg] | plasma half life [8] [h] | plasma half life ([8]; after 1 week of dosing) [h] | half-life of oral levorphanol ([8]; one patient) | half-life of oral levorphanol ([8]; second patient) [h] | mean time to steady state ([9]; using the average of the two reported values) [h] | time to reach steady state therapeutic concentration upon repeated dosing ([9]; using the higher reported 30 hour half-life) [h] | time to reach steady state therapeutic concentration upon repeated dosing ([9]; using the lower reported 16 hour half-life) [h] |
| --- | --- | --- | --- | --- | --- | --- | --- | --- | --- | --- | --- | --- | --- | --- | --- | --- | --- |
| CN1CC[C@]23CCCC[C@H]2[C@H]1Cc1ccc(O)cc13 [Levorphanol Tartrate, morphinan-3-ol, 17-methyl-, [R—(R*,R*)]-2,3-dihydroxybutane-dioate (1:1) (salt) dihydrate] | 30.2 | 52 | 1220 | 2100 | 91 |  |  |  |  |  |  |  |  |  |  |  |  |
| CN1CC[C@]23CCCC[C@H]2[C@H]1Cc1ccc(O)cc13 [levorphanol, l 3-hydroxy-N-methylmorphinan] |  |  |  |  |  | approximately 40 fold | shorter than that of morphine | shorter than that of morphine | 4 | 1 | 12 to 16 | 90 to 120 | approximately 16 hours | 30 | 115 | 150 | 80 |
